Measurements taken from patent US20060258717A1, “ORGANIC COMPOUNDS” (priority 2004, published 2006).
Where two headings read alike, the source gives them in different places.

Test system: human umbilical vein endothelial cells (HUVECs)
Details: for number of tubes (capillary networking) versus control: 24 hours, HUVECs on growth factor-reduced Matrigel, 8 wells, five random fields per well
Description: Various concentrations of compound A (0.1, 1, and 10 μM) are tested to assess the quality of effect of this compound on capillary networking (tube formation) in cultured human umbilical vein endothelial cells (HUVECs) seeded on growth factor-reduced Matrigel. The intensity of capillary networking is evaluated at 24 hours using a phase-contrast microscope. Images are captured and analySYS 3.2 software is used to count the number of tubes in five random fields of each well (8 wells altogether). The effect of the compound is compared to untreated cells grown in cell culture medium (control).

Cc1nccn1Cc1ccccn1 [Compound A, [2-(2-methylimidazol-1-yl)methyl]pyridine]
number of tubes (capillary networking) versus control (1 μM compound): significantly decreases the number of tubes | number of tubes (capillary networking) versus control (10 μM compound): significantly decreases the number of tubes | cell toxicity (ToxiLight, ATP release from damaged cells) (additional study, concentrations not given): not related to cell toxicity
